Reference: patent US7169787B2, “7-azaindoles, use thereof as phosphodiesterase 4 inhibitors and method for producing the same” (Elbion AG, priority 2000, dated 2007)

Key:
PDE 4 = assay: Inhibition of phosphodiesterase 4 (enzyme preparation from human PMNL, [3H]-cAMP); format: biochemical; settings: PDE 4 from human PMNL cytosol, 0.5 μM [3H]-cAMP
Protocol: The PDE 4 activity is determined in enzyme preparations from human polymorphonuclear […] (PMNL) and the PDE 2, 3 and 5 activity is determined with PDE from human thrombocytes. Human blood was anti-coagulated with citrate. By centrifuging at 700×g for 20 minutes at room temperature, the thrombocyte-rich plasma in the supernatant is separated from the erythrocytes and leukocytes. The thrombocytes are lysed by ultrasound and used in the PDE 3 and PDE 5 assays. For the determination of the PDE 2 activity, the cytosolic thrombocyte fraction is purified on an anionic exchange column by means of NaCl gradients and the PDE 2 peak is obtained for the assay. The PMNLs for the PDE 4 determination are isolated by a subsequent dextran sedimentation, followed by a gradient centrifugation with Ficoll-Paque. After the cells have been washed twice, the erythrocytes, still contained, are lysed within 6 minutes at 4° C. by the addition of 10 mL of hypotonic buffer (155 mM of NH4Cl, 10 mM of NaHCO3, 0.1 mM of EDTA, pH=7.4). The PMNLs, which are still intact, are washed twice with PBS and lysed with ultrasound. The supernatant of a one-hour centrifugation at 4° C. at 48,000×g contains the cytosolic fraction of the PDE 4 and is used for the PDE 4 measurements.
The phosphodiesterase activity is determined using the method described by Thompson et al. with some modifications (Thompson, W. J. and M. M. Appleman, Assay of cyclic nucleotide phosphodiesterase and resolution of multiple molecular forms of the enzyme, Adv. Cycl. Nucl. Res. 1979, 10, 69–92).
The reaction mixtures contain 50 mM of tris hydrochloride (pH 7.4), 5 mM of magnesium chloride, the inhibitors in various concentrations, the corresponding enzyme preparation as well as the further components necessary for determining the individual isoenzymes (see below). The reaction is started by the addition of the substrate, 0.5 μM of [^3H]-cAMP or [^3H]-cGMP (approximately 6000 CPM per test). The final volume is […]. Test substances are mixed as stock solutions in DMSO. The DMSO concentration in the reaction mixture is 1% v/v. The PDE activity is not affected by this concentration of DMSO. After the reaction is started by the addition of substrate, samples are incubated for 30 minutes at 37° C. The reaction is stopped by heating the test tubes for 2 minutes at 110° C. The samples remain for a further 10 minutes in ice. The addition of 30 μL of 5′-nucleotidase (1 mg/mL, from a poisonous snake suspension from Crotalus adamanteus) is followed by a 10-minutes incubation at 37° C. The samples are stopped on ice, in each case 400 μL of a mixture of Dowex, water and ethanol (1+1+1) is added, mixed well and incubated once again for 15 minutes on ice. The reaction vessels are centrifuged for 20 minutes at 3000×g. Aliquots of the supernatant (200 μL) are transferred directly to scintillation vessels. After the addition of 3 mL of scintillator, the samples are measured in the beta counter.
[^3H]-cAMP is used as substrate for the determination of the PDE 4, 3 and 2 activity and [^3H]-cGMP is used as substrate for the determination of the PDE 5 activity. The enzyme activities, which are nonspecific in each case, are determined in the presence of 100 μM of Rolipram for the determination of PDE 4 and in the presence of 100 μM of IBMX for the determination of the PDE 3 and 5 and subtracted from the test values. The incubation formulations of the PDE 3 assays contained 10 μM of Rolipram, in order to inhibit possible contaminations by PDE 4. The PDE 2 is tested with an SPA assay of the Amersham Company. The assay is carried out in the presence of the activator of the PDE 2 (5 μM of cGMP).

Lewis Rats = assay: Inhibition of the lipopolysaccharide (LPS)-induced lung neutrophilia; format: in vivo, rat; settings: 1 mg/kg p.o., 2 h before LPS provocation; BAL 6 h after provocation
Protocol: The inhibition of pulmonary neutrophil infiltration by the inventive substances is tested on male Lewis Rats (250–350 g). On the day of the experiments, the animals are placed individually in open 1 L Plexiglas boxes, which are connected to a head-nose exposure device. The animals are exposed to an aerosol of a lipopolysaccharide suspension (100 μg LPS/mL of 0.1% hydroxylamine solution) in PBS (LPS provocation). The LPS/hydroxylamine aerosol is nebulized by a nebulizer (Bird Micronebulizer, Palm Springs Calif., USA), which is operated with compressed air (0.2 MPa). The exposure time is 40 minutes, normal controls being nebulized also for 40 minutes with an aerosol of 0.1% hydroxylamine solution in PBS.
Six hours after the LPS provocation, there is a maximum, massive migration of neutrophil granulocytes into the lungs of the animals. At this time, the animals are anesthetized with an excess of ethyl urethane (1.5 g/kg of body weight i.p.) and a bronchoalveolar lavage (BAL) with 3×4 mL of Hank's balance solution is carried out. The total cell count and the number of neutrophil granulocytes of the pooled BAL liquid are subsequently determined with an automatic cell differentiation instrument (Bayer Diagnostics Technicon HIE). For each animal, the neutrophiles (NEUTRO) in the BAL are calculated in millions/animal: NEUTRO/μl×BAL recovery (mL)=NEUTRO/animal.
For each test, 2 control groups were also run (nebulization with 0.1% hydroxylamine solution in PBS and nebulization with 100 μg LPS/mL of 0.1% hydroxylamine solution in PBS).
The percentage inhibition of the neutrophilia of the experimental group, treated with substance, was calculated according to the following formula: {((LPSC−SC)−(LPSD−SC))/(LPSC−SC)}×100%=% inhibition SC=vehicle-treated control group challenged with 0.1% hydroxylamine solution; LPSC=vehicle-treated control group challenged with LPS (100 μg/mL 0.1% hydroxylamine solution); LPSD=substance-treated experimental group challenged with LPS (100 μg/mL 0.1% hydroxylamine solution) […]

SMILES: Cc1ccc(Cn2cc(C(=O)C(=O)Nc3c(Cl)cncc3Cl)c3cccnc32)cc1 [Example 22]
- melting point: 176 to 178 °C
- IC50 (PDE 4): 2 nM
- Inhibition of neutrophilia (table titled Inhibition of Eosinophilia) (Lewis Rats): 64%
